Reference: patent publication US20250230193A1, “CYCLIC COMPOUND HAVING SELECTIVE KRAS INHIBITORY EFFECT ON HRAS AND NRAS” (CHUGAI SEIYAKU KABUSHIKI KAISHA, priority 2022, published 2025)

How the values were obtained:
[1] = target: GDP-bound HRAS wild-type protein (Homo sapiens, UniProt P01112); assay: Binding to HRAS by surface plasmon resonance (SPR), Single Cycle Kinetics; conditions: KD ratio HRAS/KRAS, SPR
[2] = target: GDP-bound NRAS wild-type protein (Homo sapiens, UniProt P01111); assay: Binding to NRAS by surface plasmon resonance (SPR), Single Cycle Kinetics; conditions: KD ratio NRAS/KRAS, SPR
GDP-bound NRAS wild-type protein, sequence (P01111 whole entry): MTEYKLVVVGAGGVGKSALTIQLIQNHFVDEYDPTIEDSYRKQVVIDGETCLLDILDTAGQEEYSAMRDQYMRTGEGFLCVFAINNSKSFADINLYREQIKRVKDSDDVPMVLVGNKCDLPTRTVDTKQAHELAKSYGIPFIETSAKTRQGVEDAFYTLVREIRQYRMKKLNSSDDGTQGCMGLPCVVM

GDP-bound HRAS wild-type protein, sequence (P01112 whole entry): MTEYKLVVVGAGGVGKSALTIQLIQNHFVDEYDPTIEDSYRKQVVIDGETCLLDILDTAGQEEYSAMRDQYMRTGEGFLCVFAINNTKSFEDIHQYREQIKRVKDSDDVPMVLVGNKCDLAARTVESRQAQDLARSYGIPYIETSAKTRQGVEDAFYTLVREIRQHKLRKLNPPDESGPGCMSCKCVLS

In the case of `CC[C@H](C)[C@@H]1NC(=O)[C@H](CC)N(C)C(=O)C[C@@H](C(=O)N2CCOCC2)N(C)C(=O)[C@H](C2CCCC2)N(C)C(=O)C2(CCCC2)NC(=O)[C@@H]2CCCN2C(=O)[C@H](CCc2cc(F)c(C(F)(F)F)c(F)c2)NC(=O)CN(C)C(=O)[C@H](Cc2ccc(C(F)(F)F)cc2)N2CCCCC[C@@H](C2=O)N(C)C(=O)CN(C)C1=O` [PP0488], the “HRAS/KRAS (ratio of KD value with respect to GDP-bound HRAS wild-type protein to KD value with respect to KRAS)” value [1] is reported as “B (a compound having 3 or more and less than 10 is denoted as B)” and the “NRAS/KRAS (ratio of KD value with respect to GDP-bound NRAS wild-type protein to KD value with respect to KRAS)” value [2] is reported as “A (a compound having 10 or more and less than 20 is denoted as A)”.
`CC[C@H](C)[C@@H]1NC(=O)[C@H](CC(C)C)N(C)C(=O)C[C@@H](C(=O)N2CCOCC2)N(C)C(=O)[C@H](C2CCCC2)N(C)C(=O)C2(CCCC2)NC(=O)[C@@H]2CCCN2C(=O)[C@H](CCc2cc(F)c(C(F)(F)F)c(F)c2)NC(=O)CN(C)C(=O)[C@H](Cc2ccc(C(F)(F)F)cc2)N2CCCCC[C@@H](C2=O)N(C)C(=O)CN(C)C1=O` [PP0490] was tested, and the “HRAS/KRAS (ratio of KD value with respect to GDP-bound HRAS wild-type protein to KD value with respect to KRAS)” value [1] was “B (a compound having 3 or more and less than 10 is denoted as B)” and the “NRAS/KRAS (ratio of KD value with respect to GDP-bound NRAS wild-type protein to KD value with respect to KRAS)” value [2] was “B (a compound having 3 or more and less than 10 is denoted as B)”.
For `CC[C@H](C)[C@@H]1NC(=O)[C@H](CC(C)C)N(C)C(=O)C[C@@H](C(=O)N2CCOCC2)N(C)C(=O)[C@H](C2CCCC2)N(C)C(=O)C2(CCCC2)NC(=O)[C@@H]2CC(F)(F)CN2C(=O)[C@H](CCc2cc(F)c(C(F)(F)F)c(F)c2)NC(=O)CN(C)C(=O)[C@H](Cc2ccc(C(F)(F)F)cc2)N2CCCCC[C@@H](C2=O)N(C)C(=O)CN(C)C1=O` [PP0491], the “HRAS/KRAS (ratio of KD value with respect to GDP-bound HRAS wild-type protein to KD value with respect to KRAS)” value [1] was “B (a compound having 3 or more and less than 10 is denoted as B)” and the “NRAS/KRAS (ratio of KD value with respect to GDP-bound NRAS wild-type protein to KD value with respect to KRAS)” value [2] was “B (a compound having 3 or more and less than 10 is denoted as B)”.
In the case of `CCO[C@@H]1C[C@H]2C(=O)NC3(CCCC3)C(=O)N(C)[C@@H](C3CCCC3)C(=O)N(C)[C@H](C(=O)N3CCOCC3)CC(=O)N(C)[C@@H](CC(C)C)C(=O)N[C@@H]([C@@H](C)CC)C(=O)N(C)CC(=O)N(C)[C@H]3CCCCCN(C3=O)[C@@H](Cc3ccc(C(F)(F)F)cc3)C(=O)N(C)CC(=O)N[C@@H](CCc3cc(F)c(C(F)(F)F)c(F)c3)C(=O)N2C1` [PP0492], the “HRAS/KRAS (ratio of KD value with respect to GDP-bound HRAS wild-type protein to KD value with respect to KRAS)” value [1] is reported as “B (a compound having 3 or more and less than 10 is denoted as B)” and the “NRAS/KRAS (ratio of KD value with respect to GDP-bound NRAS wild-type protein to KD value with respect to KRAS)” value [2] is reported as “B (a compound having 3 or more and less than 10 is denoted as B)”.
`CC[C@H](C)[C@@H]1NC(=O)[C@H](CC(C)C)N(C)C(=O)C[C@@H](C(=O)N2CCOCC2)N(C)C(=O)[C@H](C2CCCC2)N(C)C(=O)C2(CCCC2)NC(=O)[C@@H]2CC(=O)CN2C(=O)[C@H](CCc2cc(F)c(C(F)(F)F)c(F)c2)NC(=O)CN(C)C(=O)[C@H](Cc2ccc(C(F)(F)F)cc2)N2CCCCC[C@@H](C2=O)N(C)C(=O)CN(C)C1=O` [PP0493] was tested, and the “HRAS/KRAS (ratio of KD value with respect to GDP-bound HRAS wild-type protein to KD value with respect to KRAS)” value [1] was “B (a compound having 3 or more and less than 10 is denoted as B)” and the “NRAS/KRAS (ratio of KD value with respect to GDP-bound NRAS wild-type protein to KD value with respect to KRAS)” value [2] was “B (a compound having 3 or more and less than 10 is denoted as B)”.
For `CC[C@H](C)[C@@H]1NC(=O)[C@H](CC(C)C)N(C)C(=O)C[C@@H](C(=O)N2CCOCC2)N(C)C(=O)[C@H](C2CCCC2)N(C)C(=O)C2(CCCC2)NC(=O)[C@@H]2C[C@H](OC)CN2C(=O)[C@H](CCc2cc(F)c(C(F)(F)F)c(F)c2)NC(=O)CN(C)C(=O)[C@H](Cc2ccc(C(F)(F)F)cc2)N2CCCCC[C@@H](C2=O)N(C)C(=O)CN(C)C1=O` [PP0495], the “HRAS/KRAS (ratio of KD value with respect to GDP-bound HRAS wild-type protein to KD value with respect to KRAS)” value [1] was “B (a compound having 3 or more and less than 10 is denoted as B)” and the “NRAS/KRAS (ratio of KD value with respect to GDP-bound NRAS wild-type protein to KD value with respect to KRAS)” value [2] was “A (a compound having 10 or more and less than 20 is denoted as A)”.
In the case of `CC[C@H](C)[C@@H]1NC(=O)[C@H](CC(C)C)N(C)C(=O)C[C@@H](C(=O)N2CCOCC2)N(C)C(=O)[C@H](C2CCCC2)N(C)C(=O)C2(CC2)NC(=O)[C@@H]2CCCN2C(=O)[C@H](CCc2cc(F)c(C(F)(F)F)c(F)c2)NC(=O)CN(C)C(=O)[C@H](Cc2ccc(C(F)(F)F)cc2)N2CCCCC[C@@H](C2=O)N(C)C(=O)CN(C)C1=O` [PP0496], the “HRAS/KRAS (ratio of KD value with respect to GDP-bound HRAS wild-type protein to KD value with respect to KRAS)” value [1] is reported as “B (a compound having 3 or more and less than 10 is denoted as B)” and the “NRAS/KRAS (ratio of KD value with respect to GDP-bound NRAS wild-type protein to KD value with respect to KRAS)” value [2] is reported as “B (a compound having 3 or more and less than 10 is denoted as B)”.
In the case of `CC[C@H](C)[C@@H]1NC(=O)[C@H](CC(C)C)N(C)C(=O)C[C@@H](C(=O)N2CCOCC2)N(C)C(=O)[C@H](C2CCCC2)N(C)C(=O)C2(CCC2)NC(=O)[C@@H]2CCCN2C(=O)[C@H](CCc2cc(F)c(C(F)(F)F)c(F)c2)NC(=O)CN(C)C(=O)[C@H](Cc2ccc(C(F)(F)F)cc2)N2CCCCC[C@@H](C2=O)N(C)C(=O)CN(C)C1=O` [PP0497], the “HRAS/KRAS (ratio of KD value with respect to GDP-bound HRAS wild-type protein to KD value with respect to KRAS)” value [1] is reported as “B (a compound having 3 or more and less than 10 is denoted as B)” and the “NRAS/KRAS (ratio of KD value with respect to GDP-bound NRAS wild-type protein to KD value with respect to KRAS)” value [2] is reported as “B (a compound having 3 or more and less than 10 is denoted as B)”.
For `CC[C@H](C)[C@@H]1NC(=O)[C@H](CC(C)C)N(C)C(=O)C[C@@H](C(=O)N2CCOCC2)N(C)C(=O)[C@H](C2CCCC2)N(C)C(=O)C2(CCCCC2)NC(=O)[C@@H]2CCCN2C(=O)[C@H](CCc2cc(F)c(C(F)(F)F)c(F)c2)NC(=O)CN(C)C(=O)[C@H](Cc2ccc(C(F)(F)F)cc2)N2CCCCC[C@@H](C2=O)N(C)C(=O)CN(C)C1=O` [PP0498], the “HRAS/KRAS (ratio of KD value with respect to GDP-bound HRAS wild-type protein to KD value with respect to KRAS)” value [1] was “B (a compound having 3 or more and less than 10 is denoted as B)” and the “NRAS/KRAS (ratio of KD value with respect to GDP-bound NRAS wild-type protein to KD value with respect to KRAS)” value [2] was “B (a compound having 3 or more and less than 10 is denoted as B)”.
`CC[C@H](C)[C@@H]1NC(=O)[C@H](CC(C)C)N(C)C(=O)C[C@@H](C(=O)N2CCOCC2)N(C)C(=O)[C@H](C2CCCC2)N(C)C(=O)C2(CC(F)(F)C2)NC(=O)[C@@H]2CCCN2C(=O)[C@H](CCc2cc(F)c(C(F)(F)F)c(F)c2)NC(=O)CN(C)C(=O)[C@H](Cc2ccc(C(F)(F)F)cc2)N2CCCCC[C@@H](C2=O)N(C)C(=O)CN(C)C1=O` [PP0499] was tested, and the “HRAS/KRAS (ratio of KD value with respect to GDP-bound HRAS wild-type protein to KD value with respect to KRAS)” value [1] was “B (a compound having 3 or more and less than 10 is denoted as B)” and the “NRAS/KRAS (ratio of KD value with respect to GDP-bound NRAS wild-type protein to KD value with respect to KRAS)” value [2] was “B (a compound having 3 or more and less than 10 is denoted as B)”.
In the case of `CC[C@H](C)[C@@H]1NC(=O)[C@H](CC(C)C)N(C)C(=O)C[C@@H](C(=O)N2CCOCC2)N(C)C(=O)[C@H](C2CCCC2)N(C)C(=O)[C@](C)(CC)NC(=O)[C@@H]2CCCN2C(=O)[C@H](CCc2cc(F)c(C(F)(F)F)c(F)c2)NC(=O)CN(C)C(=O)[C@H](Cc2ccc(C(F)(F)F)cc2)N2CCCCC[C@@H](C2=O)N(C)C(=O)CN(C)C1=O` [PP0500], the “HRAS/KRAS (ratio of KD value with respect to GDP-bound HRAS wild-type protein to KD value with respect to KRAS)” value [1] is reported as “B (a compound having 3 or more and less than 10 is denoted as B)” and the “NRAS/KRAS (ratio of KD value with respect to GDP-bound NRAS wild-type protein to KD value with respect to KRAS)” value [2] is reported as “B (a compound having 3 or more and less than 10 is denoted as B)”.
